Usually IC50 stands for the concentration at which inhibition is half-maximal.

The values that follow come from patent US5314887A, “2-amino-1, 4-dihydropyridine derivatives with calcium agonist and alpha -antagonist activity” (The Du Pont Merck Pharmaceutical Company, priority 1992, dated 1994).

The subject of data set [1] is influx of calcium ions into cells. Particulars: background statement; cited from earlier work.
The subject of another data set is guinea pig left atria. The data set can be described thus: Positive inotropic effect in guinea pig left atria. The note with it: Cavia porcellus; for EC50: left atria paced at 2 Hz, Krebs bicarbonate, 37°, cumulative addition to maximum 10^-4, read-out: EC50 = concentration that increases DT (developed tension) by 50% above the control DT; for Emax: relative to Bay K8644, expressed in percent, read-out: Intrinsic Activity: ratio of the maximum effect of the test compound to that of Bay K8644. Here is the method: Guinea pigs are killed by cervical dislocation. The left atria are removed and mounted at 1 gm resting tension in tissue baths containing oxygenated Krebs bicarbonate solution which is kept at 37°. The left atria are electrically paced at 2 Hz with square wave pulses of 1 msec duration. The voltage is set at 1.5×threshold level.
After a one hour equilibration period, control values for developed tension (DT, gm) are recorded. Test compounds are then added to the baths, in a cumulative manner to a maximum concentration of 10^-4, to obtain a concentration-response curve. Treatment values of DT are obtained after the drug effect has reached a plateau and the exposure time for each concentration is 5-8 minutes. Percent change of the treatment value from the control value is calculated at each concentration of the test compound.
^a EC50 (M) = concentration that increases DT by 50% above the
^b Intrinsic Activity is a ratio of the maximum effect of the test
compound to that of Bay K8644 and expressed in percent.

Data set [2] deals with alpha1-adrenoceptor (rat brain membranes). The experiment in a line: [3H]-Prazosin binding assay (affinity for alpha1-adrenoceptors). Particulars: 0.2 nM [3H]-prazosin, partially purified rat brain membranes, Tris buffer, 60 minutes at 25°. Here is the method:
The [^3 H]-prazosin binding assay was carried out according to the method described by Timmermans, P. B. M. W. M., Schoop, A. M. C., and Van Zwieten, P. A., Biochem. Pharmacol. 31, 899-905 (1982). The reaction mixture contained partially purified rat brain membranes (source of alpha1 -adrenoceptors), 0.2 nM [^3 H]-prazosin with or without potential displacer in Tris buffer. The mixture was incubated for 60 minutes at 25° and subsequently terminated by rapid filtration through glass fiber-filter. Receptor-bound [^3 H]-prazosin trapped in the filter was quantitated by scintillation counting. The inhibitory concentration (IC50) of potential displacer which gives 50% displacement of the total specifically bound [^3 H]-prazosin is presented as a measure of the affinity of such compound for the alpha1 -adrenoceptor.

Data set [3] deals with T1, Ca^2+ channel (rat cardiac microsomes) (Rattus norvegicus, UniProt P22002).
T1 construct: The reaction mixture contained rat cardiac microsomes; from tissue; host or cells: rat heart (cardiac microsomes)
T1 sequence (P22002 whole entry, other chains not shown): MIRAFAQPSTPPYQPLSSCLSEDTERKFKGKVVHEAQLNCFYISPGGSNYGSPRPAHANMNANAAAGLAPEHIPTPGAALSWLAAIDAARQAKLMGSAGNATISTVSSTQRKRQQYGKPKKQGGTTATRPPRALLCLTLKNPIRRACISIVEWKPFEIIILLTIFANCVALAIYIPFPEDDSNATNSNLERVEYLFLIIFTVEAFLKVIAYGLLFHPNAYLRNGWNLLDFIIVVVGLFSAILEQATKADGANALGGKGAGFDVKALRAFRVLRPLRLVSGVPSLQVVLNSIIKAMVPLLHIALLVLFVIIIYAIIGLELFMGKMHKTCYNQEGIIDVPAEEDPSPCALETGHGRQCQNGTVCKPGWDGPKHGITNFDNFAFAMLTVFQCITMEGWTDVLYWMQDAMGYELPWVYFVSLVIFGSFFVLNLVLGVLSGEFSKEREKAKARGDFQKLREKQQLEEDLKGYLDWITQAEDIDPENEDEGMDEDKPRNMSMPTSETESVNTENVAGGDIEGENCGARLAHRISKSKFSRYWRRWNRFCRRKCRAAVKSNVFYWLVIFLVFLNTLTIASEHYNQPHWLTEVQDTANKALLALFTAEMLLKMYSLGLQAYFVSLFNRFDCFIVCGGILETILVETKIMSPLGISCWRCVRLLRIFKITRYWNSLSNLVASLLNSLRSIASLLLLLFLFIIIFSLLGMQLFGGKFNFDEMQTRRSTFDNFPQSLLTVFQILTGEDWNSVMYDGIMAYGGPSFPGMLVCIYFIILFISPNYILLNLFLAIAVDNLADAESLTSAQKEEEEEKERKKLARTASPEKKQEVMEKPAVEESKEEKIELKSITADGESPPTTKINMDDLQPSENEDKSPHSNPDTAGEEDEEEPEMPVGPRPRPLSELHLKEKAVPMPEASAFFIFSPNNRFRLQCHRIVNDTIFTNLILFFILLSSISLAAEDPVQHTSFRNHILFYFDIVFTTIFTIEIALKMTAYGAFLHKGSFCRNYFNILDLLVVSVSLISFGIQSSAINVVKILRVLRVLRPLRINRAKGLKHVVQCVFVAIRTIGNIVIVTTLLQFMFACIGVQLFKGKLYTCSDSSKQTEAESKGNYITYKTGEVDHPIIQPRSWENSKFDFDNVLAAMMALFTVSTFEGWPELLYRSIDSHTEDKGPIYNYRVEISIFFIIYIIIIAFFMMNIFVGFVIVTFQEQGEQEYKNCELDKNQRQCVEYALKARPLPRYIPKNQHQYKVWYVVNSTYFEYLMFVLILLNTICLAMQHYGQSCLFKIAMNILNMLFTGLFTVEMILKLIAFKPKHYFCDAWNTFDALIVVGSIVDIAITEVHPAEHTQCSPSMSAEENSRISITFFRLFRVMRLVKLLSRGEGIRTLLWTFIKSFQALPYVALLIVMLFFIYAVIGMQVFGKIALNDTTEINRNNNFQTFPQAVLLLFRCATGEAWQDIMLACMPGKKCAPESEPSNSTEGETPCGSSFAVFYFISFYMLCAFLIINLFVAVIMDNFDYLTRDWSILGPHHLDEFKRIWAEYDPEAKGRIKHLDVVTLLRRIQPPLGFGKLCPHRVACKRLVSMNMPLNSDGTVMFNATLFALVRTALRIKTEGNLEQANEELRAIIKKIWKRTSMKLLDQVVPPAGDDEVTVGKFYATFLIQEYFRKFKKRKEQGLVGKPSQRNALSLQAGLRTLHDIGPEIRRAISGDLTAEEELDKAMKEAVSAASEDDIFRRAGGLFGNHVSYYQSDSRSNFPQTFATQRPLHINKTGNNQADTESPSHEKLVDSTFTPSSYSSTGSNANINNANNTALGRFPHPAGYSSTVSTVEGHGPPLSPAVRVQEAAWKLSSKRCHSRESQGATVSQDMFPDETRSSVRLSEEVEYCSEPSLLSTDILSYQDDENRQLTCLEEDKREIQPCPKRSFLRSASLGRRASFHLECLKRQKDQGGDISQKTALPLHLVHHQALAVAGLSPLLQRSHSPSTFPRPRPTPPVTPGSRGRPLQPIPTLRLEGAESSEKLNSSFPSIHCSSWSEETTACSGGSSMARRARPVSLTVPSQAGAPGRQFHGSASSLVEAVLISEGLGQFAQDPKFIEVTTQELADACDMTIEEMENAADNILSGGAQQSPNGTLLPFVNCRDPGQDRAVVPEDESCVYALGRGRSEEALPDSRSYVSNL
T1 sequence (P54290 25-944 partner limits assumed, other chains not shown): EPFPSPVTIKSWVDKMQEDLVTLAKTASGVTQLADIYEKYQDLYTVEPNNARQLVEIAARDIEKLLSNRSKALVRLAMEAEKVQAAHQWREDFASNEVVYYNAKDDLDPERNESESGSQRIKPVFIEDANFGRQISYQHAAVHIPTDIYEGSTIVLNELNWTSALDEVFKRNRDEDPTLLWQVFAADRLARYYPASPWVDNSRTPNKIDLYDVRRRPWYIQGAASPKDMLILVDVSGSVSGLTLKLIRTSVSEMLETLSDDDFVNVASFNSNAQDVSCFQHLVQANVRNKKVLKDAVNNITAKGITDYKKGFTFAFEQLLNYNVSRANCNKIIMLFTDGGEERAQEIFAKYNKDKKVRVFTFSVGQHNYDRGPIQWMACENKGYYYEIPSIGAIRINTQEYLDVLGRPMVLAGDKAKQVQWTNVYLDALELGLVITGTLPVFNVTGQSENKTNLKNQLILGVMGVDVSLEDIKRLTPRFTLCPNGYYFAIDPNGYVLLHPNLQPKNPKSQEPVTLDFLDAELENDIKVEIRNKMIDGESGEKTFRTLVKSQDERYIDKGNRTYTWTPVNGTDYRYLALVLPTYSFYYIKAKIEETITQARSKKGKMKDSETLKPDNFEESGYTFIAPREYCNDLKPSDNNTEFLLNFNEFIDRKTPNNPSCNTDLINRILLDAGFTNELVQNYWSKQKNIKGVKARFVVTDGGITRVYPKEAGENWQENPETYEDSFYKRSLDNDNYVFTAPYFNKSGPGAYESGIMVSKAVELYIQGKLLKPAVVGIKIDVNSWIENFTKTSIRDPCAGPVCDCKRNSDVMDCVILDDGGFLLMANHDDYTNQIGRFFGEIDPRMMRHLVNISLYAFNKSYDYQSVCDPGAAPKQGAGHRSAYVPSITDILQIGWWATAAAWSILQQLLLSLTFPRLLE
T1 sequence (P54290 945-1091 partner limits assumed, other chains not shown): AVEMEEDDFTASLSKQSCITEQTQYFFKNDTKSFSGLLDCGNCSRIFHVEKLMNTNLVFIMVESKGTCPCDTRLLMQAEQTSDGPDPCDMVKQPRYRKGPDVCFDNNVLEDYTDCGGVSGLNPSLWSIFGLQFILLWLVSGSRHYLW
The data set can be described thus: [3H]-Nitrendipine binding assay (affinity for calcium channels). The note with it: 0.5 nM [3H]-nitrendipine, Tris buffer, 60 minutes at 25°. Here is the method: [^3 H]-Nitrendipine binding assay was carried out according to the method described by G. T. Bolger, et al., Biochem. Biophys. Res. Comm. 104, 1604-1609 (1982). The reaction mixture contained rat cardiac microsomes (source of Ca^2+ channels), 0.5 nM [^3 H]-nitrendipinewith or without potential displacer in Tris buffer. The mixture was incubated for 60 minutes at 25° and subsequently terminated by rapid filtration through a glass fiber-filter. Membrane-bound [^3 H]-nitrendipine trapped in the filter was quantitated by scintillation counting. The inhibitory concentration (IC50) of potential displacer which gives 50% displacement of the total specifically bound [^3 H]-nitrendipine is presented as a measure of the affinity of such compound for the Ca^2+ channel.

In the case of `COC(=O)C1=C(C)NC(C)=C([N+](=O)[O-])C1c1ccccc1C(F)(F)F` (stereo not shown) [Bay K8644], in data set [1], the coronary vasoconstricting properties result was “coronary vasoconstricting properties”; the “effect on calcium influx, inotropic and vasoconstrictor effects” value is “promote an influx of calcium ions into cells, thereby producing positive inotropic and vasoconstrictor effects”; the “potency as a calcium agonist relative to CGP 28392” value is listed as “more than ten times as potent as CGP 28392”. For the same molecule, in the data set on guinea pig left atria, the EC50 came to 150 nM and the Emax came to 100%.

As to `CCOC(=O)C1=C(C)NC2=C(C(=O)OC2)C1c1ccccc1OC(F)F` (stereo not shown) [CGP 28392], the “effect on calcium influx, inotropic and vasoconstrictor effects” value in data set [1] is “promote an influx of calcium ions into cells, thereby producing positive inotropic and vasoconstrictor effects”.

For the molecule `COC(=O)C1=C(N)NC(C)=C([N+](=O)[O-])C1c1ccccc1SCCCCN1CCN(c2ccccc2OC)CC1` (stereo not shown) [Example 1, 2-Amino-1,4-dihydro-4-(2-{4-[4-(2-methoxyphenyl)-1-piperazinyl]-butylthio}phenyl)-6-methyl-5-nitro-3-pyridinecarboxylic acid methyl ester], in data set [2], the IC50 worked out at 60 nM. In the data set with guinea pig left atria, the EC50 was determined as 550 nM and the Emax is 166%. Also, the IC50 in data set [3] was found to be 520 nM.

In turn, `COC(=O)C1=C(N)NC(C)=C([N+](=O)[O-])C1c1ccccc1[S+]([O-])CCCCN1CCN(c2ccccc2OC)CC1` (stereo not shown) [Example 2, 2-Amino-1,4-dihydro-4-(2-{4-[4-(2-methoxyphenyl)-1-piperazinyl]-butylsulfinyl}phenyl)-6-methyl-5-nitro-3-pyridinecarboxylic acid methyl ester] showed an IC50 in data set [2] of 11 nM. Besides, in the data set on guinea pig left atria, the EC50 worked out at 5700 nM and the Emax amounted to 90%. For the same molecule, the IC50 in data set [3] was found to be 1700 nM.

Turning to `COC(=O)C1=C(N)NC(C)=C([N+](=O)[O-])C1c1ccccc1OCCCCCN1CCN(c2ncccn2)CC1` (stereo not shown) [Example 3, 2-Amino-1,4-dihydro-4-(2-{5-[4-(2-pyrimidinyl)-1-piperazinyl]-pentyloxy}phenyl)-6-methyl-5-nitro-3-pyridinecarboxylic acid methyl ester], the half-inhibitory concentration (IC50) in data set [2] was 160 nM; in data set [3] it was 930 nM. Also, in the data set with guinea pig left atria, the EC50 came to 1000 nM. The Emax in the data set on guinea pig left atria was found to be 170%.

`COC(=O)C1=C(N)NC(C)=C([N+](=O)[O-])C1c1ccccc1OCCCCCN1CCN(c2ccccc2OC)CC1` (stereo not shown) [Example 4, 2-Amino-1,4-dihydro-4-(2-{5-[4-(2-methoxyphenyl)-1-piperazinyl]-pentyloxy}phenyl)-6-methyl-5-nitro-3-pyridinecarboxylic acid methyl ester] gave an IC50 in data set [2] of 3400 nM. In addition, in the data set with guinea pig left atria, the EC50 came out at 1600 nM and the Emax was 128%. In data set [3], the IC50 was found to be 1600 nM.

With `COC(=O)C1=C(N)NC(C)=C([N+](=O)[O-])C1c1ccccc1S(=O)(=O)CCCCN1CCN(c2ccccc2OC)CC1` (stereo not shown) [Example 5, 2-Amino-1,4-dihydro-4-(2-{4-[4-(2-methoxyphenyl)-1-piperazinyl]-butylsulfonyl}phenyl)-6-methyl-5-nitro-3-pyridinecarboxylic acid methyl ester], in data set [2], the IC50 was found to be 60 nM. Moreover, in the data set on guinea pig left atria, the EC50 was found to be 1500 nM and the Emax came to 119%. Further, the IC50 in data set [3] came out at 390 nM.

Turning to `COC(=O)C1=C(N)NC(C)=C([N+](=O)[O-])C1c1ccccc1SCCCCN1CCN(c2ncccn2)CC1` (stereo not shown) [Example 6], the IC50 in data set [2] was determined as 4500 nM. Also, in the data set with guinea pig left atria, the EC50 turned out to be 47 nM and the Emax was determined as 113%. In data set [3], the IC50 was 400 nM.

The molecule `COC(=O)C1=C(N)NC(C)=C([N+](=O)[O-])C1c1ccccc1SCCCCN1CCC(C(=O)c2ccc(F)cc2)CC1` (stereo not shown) [Example 7] displayed an IC50 in data set [2] of 150 nM. Further, in the data set on guinea pig left atria, the EC50 is 9600 nM and the Emax stood at 112%. For the same molecule, the IC50 in data set [3] is 150 nM.

In data set [2], `COC(=O)C1=C(N)NC(C)=C([N+](=O)[O-])C1c1ccccc1[S+]([O-])CCCCN1CCN(c2ncccn2)CC1` (stereo not shown) [Example 8, 2-Amino-1,4-dihydro-4-(2-{4-[4-(2-pyrimidinyl)-1-piperazinyl]-butylsulfinyl}phenyl)-6-methyl-5-nitro-3-pyridinecarboxylic acid methyl ester] gave an IC50 of 2400 nM. Besides, in the data set with guinea pig left atria, the EC50 was found to be 500 nM and the Emax came to 254%. The IC50 in data set [3] worked out at 2300 nM.

For the molecule `COC(=O)C1=C(N)NC(C)=C([N+](=O)[O-])C1c1ccccc1[S+]([O-])CCCCN1CCC(C(=O)c2ccc(F)cc2)CC1` (stereo not shown) [Example 9], the IC50 in data set [2] amounted to 150 nM; in data set [3], 2400 nM. Moreover, in the data set on guinea pig left atria, the EC50 amounted to 10000 nM. Also, the Emax in the data set on guinea pig left atria was determined as 56%.

As to `COC(=O)C1=C(N)NC(C)=C([N+](=O)[O-])C1c1ccccc1SCCCN1CCN(c2ccccc2OC)CC1` (stereo not shown) [Example 10], the IC50 in data set [2] worked out at 80 nM. Besides, in the data set with guinea pig left atria, the EC50 was determined as 3500 nM and the Emax turned out to be 115%. Also, in data set [3], the IC50 stood at 300 nM.

With `COC(=O)C1=C(N)NC(C)=C([N+](=O)[O-])C1c1ccccc1SCCCCCN1CCN(c2ccccc2OC)CC1` (stereo not shown) [Example 11], the results for the IC50 in data set [2] and in data set [3] were 42 nM and 240 nM, respectively. For the same molecule, the EC50 in the data set with guinea pig left atria was determined as 2400 nM. Besides, in the data set with guinea pig left atria, the Emax came to 112%.

With `COC(=O)C1=C(N)NC(C)=C([N+](=O)[O-])C1c1ccccc1[S+]([O-])CCCN1CCN(c2ccccc2OC)CC1` (stereo not shown) [Example 12], the results for the IC50 in data set [2] and in data set [3] were 52 nM and 620 nM, respectively. Also, in the data set on guinea pig left atria, the EC50 is more than 100000 nM. For the same molecule, the Emax in the data set on guinea pig left atria came to 35%.

For `COC(=O)C1=C(N)NC(C)=C([N+](=O)[O-])C1c1ccccc1[S+]([O-])CCCCCN1CCN(c2ccccc2OC)CC1` (stereo not shown) [Example 13], in data set [2], the IC50 was 25 nM. In the data set on guinea pig left atria, the EC50 was found to be 5200 nM and the Emax was found to be 119%. Also, the IC50 in data set [3] is 1300 nM.
